These results are taken from patent US8389563B2, “C-substituted diindolylmethane compositions and methods for the treatment of multiple cancers” (The Texas A&M University System, priority 2000, dated 2013).

The structures appear in SMILES notation.

Data set [1] has as its target T1, PPARγ (Homo sapiens, UniProt P37231).
T1 construct: expressed in transfected cells; host or cells: MCF-7 breast cancer cells
T1 sequence (P37231 238-503 limits assumed): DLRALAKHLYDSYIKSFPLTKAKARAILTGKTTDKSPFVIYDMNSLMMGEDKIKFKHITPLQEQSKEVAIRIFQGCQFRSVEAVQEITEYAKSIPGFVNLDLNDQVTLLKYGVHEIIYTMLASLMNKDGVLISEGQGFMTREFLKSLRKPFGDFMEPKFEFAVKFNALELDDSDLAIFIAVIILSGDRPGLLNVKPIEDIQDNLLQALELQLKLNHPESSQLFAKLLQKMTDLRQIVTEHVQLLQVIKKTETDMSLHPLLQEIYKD
Description: pGAL4-PPARγ / pGAL45 luciferase reporter assay in MCF-7 breast cancer cells. The class given is cell-based. To be noted: 5 μM. The source says: Peroxisome proliferator-activated receptor (PPAR) is a nuclear receptor that induces differentiation in multiple tissues and cell lines. Synthetic compounds that bind PPAR (inhibit growth, induce differentiation in multiple tumor cell lines, and inhibit mammary carcinogenesis in rodent models (Mueller et al., “Terminal differentiation of human breast cancer through PPAR” Mol. Cell. 1:465 470, 1998; Elstner et al., “Ligands for peroxisome proliferator-activated receptor gamma and retinoic acid receptor inhibit growth and induce apoptosis of human breast cancer cells in vitro and in BNX mice” Proc. Natl. Acad. Sci. USA 95:8806 8811, 1998; Brockman et al., “Activation of PPARγ leads to inhibition of anchorage independent growth of human colorectal cancer cells” Gastroenterology 115:2049 1055, 1998; Tontonoz et al., “Terminal differentiation of human lipsarcoma cells induced by ligands for peroxisome proliferator-activated receptor and the retinoid X receptor” Proc. Natl. Acad. Sci. USA 94:237 241, 1997; Suh et al., “A new ligand for the peroxisome proliferator-activated receptor-PPAR, GW7845, inhibits rat mammary carcinogenesis” Cancer Res. 59:56715673, 1999). […] Ligand activation of pGAL4-PPARγ is detected using a construct containing five tandem GAL4 response elements (pGAL45) linked to a luciferase reporter gene.
Background: Reporter assays use an easily measured gene product as a stand-in for the process of interest.

Data set [2] has as its system CYP1A1-dependent ethoxyresorufin O-deethylase (EROD) activity. The data set is described as follows: Induction of EROD activity in LnCAP prostate cancer cells. Type of data set: cell-based, human.
Description: (§1) Results illustrated below summarize the concentration-dependent induction of CYP1A1-dependent ethoxyresorufin O-deethylase (EROD) activity by DIM and TCDD in androgen-nonresponsive PC3 human prostate cancer cells (FIG. 12). […] We also investigated the induction of EROD activity in two additional androgen-responsive prostate cancer cell lines.
The test system of data set [3] is 22Rv1 human prostate cancer cells. Description: Proliferation of 22Rv1 prostate cancer cells. The class given is cell-based. The settings on record: 1 nM TCDD.
Data set [4] deals with CYP1A1-dependent ethoxyresorufin O-deethylase (EROD) activity. The data set is described as follows: Induction of EROD activity in 22Rv1 prostate cancer cells. To be noted: treatment for 24 hrs; TCDD 0.1 to 10 nM.
Description: as §1
Data set [5] has the same test system. Description: Induction of EROD activity in PC3 prostate cancer cells.
Description: as §1

Regarding `CCCCC/C=C/C=C1/C(=O)C=C[C@@H]1C/C=C\CCCC(=O)O` [PGJ, 15-deoxy-γ^12,14-prostaglandin J2], the “Increase in reporter gene (luciferase) activity, pGAL4-PPARγ” value in data set [1] amounted to 2 fold.
On to `Clc1cc2c(cc1Cl)Oc1cc(Cl)c(Cl)cc1O2` [TCDD, 2,3,7,8-tetrachlorodibenzo-p-dioxin], for which, in data set [2], the “Induction of EROD activity in LnCAP cells” value is “significant induction of EROD activity”. The “Proliferation of 22Rv1 human prostate cancer cells” value in data set [3] was “inhibited proliferation”. Also, in data set [4], the “Induction of EROD activity in 22Rv1 cells” value was “induced EROD activity”. Besides, the “Treatment time of maximal EROD induction in PC3 cells” value in data set [5] (10 nM TCDD) was 96 h. The “Induction of EROD activity in PC3 cells” value in data set [5] (10 μM DIM, 10 nM TCDD) is “induced EROD activity”. Besides, the “Induction of EROD activity in PC3 cells after 24 hours” value in data set [5] (24 hours) is “minimal (but significant) induction”.
